Literature values as cited in patent publication US11034961B2 (priority 2015, dated 2021).

Assays:
[1] = administered by IV
[2] = infusion into the scala tympani

Row | SMILES | sufferers in whom the noise associated with tinnitus is reduced or eliminated [1] | Meniere's disease symptoms [2]
1 | CCN(CC)CC(=O)Nc1c(C)cccc1C [Lidocaine] | 60-80% | 
2 | Cc1ccccc1C(=O)Nc1ccc(C(=O)N2CCCC(N(C)C)c3ccccc32)cc1 (centres unmarked) [OPC-31260] |  | marked reduction
